Data on 11 compounds can be found in patent publication EP1118612A1, “Piperazine derivatives possesing nootropic activity” (Universita Degli Studi di Firenze, priority 2000, dated 2001).

The subject of this test is mice. As to the kind of experiment: Passive-Avoidance test (modified step-through, fall into cold water bath), amnesia induced by scopolamine, baclofen, mecamylamine or clonidine. The note with it: for 2nd Day (latency time for entering the dark compartment, retention test after 24 h): max latency 120 s. It is filed as in vivo, mouse. The protocol: A slightly modified step-through method described by Jarvik and [Psycol. Rep. […] The apparatus consists of a two-compartment acrylic box with a lighted compartment connected to the darkened one by a guillotine door. In the original method, mice received a punishing electrical shock as soon as they entered the dark compartment, while in our modified method, after entry into the dark compartment, mice receive a non-painful punishment consisting of a fall (from 40 cm ) into a cold water bath (10°C) . For this purpose the dark chamber was constructed with a pitfall floor. The latency times for entering the dark compartment were measured in the training test (first day) and after 24 h in the retention test (second day). […] All investigated drugs were injected 20 min before the training session, while amnesic drugs were injected immediately after termination of the training session. […] The memory degree of received punishment (fall into cold water) was expressed as the increase in seconds between training and retention latencies (see Table 5).

Setting [1] is: 0.001 mg kg^-1 injected 20 min before training, + Scopolamine 1.5 mg kg^-1 i.p. after training.
Setting [2] is: 0.1 mg kg^-1, + Scopolamine 1.5 mg kg^-1 i.p.
[3] abbreviates: 0.1 mg kg^-1 injected 20 min before training, + Scopolamine 1.5 mg kg^-1 i.p. after training.
Where [4] appears, read: 1.0 mg kg^-1 injected 20 min before training, + Baclofen 2 mg kg^-1 i.p. after training.
Where [5] appears, read: 1.0 mg kg^-1 injected 20 min before training, + Clonidine 0.125 mg kg^-1 i.p. after training.
[6] abbreviates: 10 mg kg^-1 injected 20 min before training, + Scopolamine 1.5 mg kg^-1 i.p. after training.
The mark [7] stands for this setting: 20 mg kg^-1 injected 20 min before training, + Mecamilamine 20 mg kg^-1 i.p. after training.
Setting [8] is: 0.01 mg kg^-1, + Scopolamine 1.5 mg kg^-1 i.p.
Setting [9] is: 0.01 mg kg^-1 injected 20 min before training, + Scopolamine 1.5 mg kg^-1 i.p. after training.
The mark [10] stands for this setting: 0.1 mg kg^-1 injected 20 min before training, + Baclofen 2 mg kg^-1 i.p. after training.
Setting [11] is: 0.1 mg kg^-1 injected 20 min before training, + Clonidine 0.125 mg kg^-1 i.p. after training.
The mark [12] stands for this setting: 1 mg kg^-1 injected 20 min before training, + Mecamilamine 20 mg kg^-1 i.p. after training.
[13] abbreviates: 30 mg kg^-1 injected 20 min before training, + Baclofen 2 mg kg^-1 i.p. after training.
Setting [14] is: 30 mg kg^-1 injected 20 min before training, + Scopolamine 1.5 mg kg^-1 i.p. after training.
[15] abbreviates: 0.01 mg kg^-1 injected 20 min before training, + Baclofen 2 mg kg^-1 i.p. after training.
The mark [16] stands for this setting: 10 mg kg^-1 injected 20 min before training, + Mecamilamine 20 mg kg^-1 i.p. after training.

Regarding `O=C1CCC2CN(S(=O)(=O)c3ccc(F)cc3)CCN12` (racemic) [Compound 2, 4-(4-fluorobenzensolfonyl)-1,4-diazabicyclo[4.3.0]nonan-9-one], under “0.001 mg kg^-1, + Scopolamine 1.5 mg kg^-1 i.p.”, the “Δ (increase in seconds between training and retention latencies)” value is 93.8 s. In addition, under setting [1], the “1st Day (latency time for entering the dark compartment, training test)” value (“1st Day” below) came to 19.7 ± 5.8 s and the “2nd Day (latency time for entering the dark compartment, retention test after 24 h)” value (from here on “2nd Day”) is 104.4 ± 10.6 s.
`C[C@H]1C[C@@H]2CN(C(=O)c3ccc(F)cc3)CCN2C1=O` (racemic) [Compound 3a, Exo (±) 8-methyl-4-(4-fluorobenzoyl)-1,4-diazabicyclo[4.3.0]nonan-9-one]: the “Δ (increase in seconds between training and retention latencies)” value under setting [2] was determined as 85.6 s. Under setting [3], the “1st Day” value was found to be 21.8 ± 4.8 s and the “2nd Day” value is 107.4 ± 10.7 s.
The matching figures for `C[C@@H]1C[C@@H]2CN(C(=O)c3ccc(F)cc3)CCN2C1=O` (racemic) [Compound 3b, Endo (±) 8-methyl-4-(4-fluorobenzoyl)-1,4-diazabicyclo[4.3.0]nonan-9-one]: 80.0 s, 12.5 ± 5.9 s and 104.0 ± 8.6 s.
The matching figures for `O=C(c1ccc(F)cc1)N1CCN2C(=O)CCC2C1` (stereo not shown) [Compound 1, 4-(4-fluorobenzoyl)-1,4-diazabicyclo[4.3.0]nonan-9-one]: 82.2 s, 18.1 ± 3.9 s and 100.3 ± 10.4 s.
Turning to `C[C@H]1C[C@@H]2CN(S(=O)(=O)c3ccc(F)cc3)CCN2C1=O` [Compound 4a, Exo 8-methyl-4-(4-fluorobenzensolfonyl)-1,4-diazabicyclo[4.3.0]nonan-9-one], the “Δ (increase in seconds between training and retention latencies)” value under setting [2] amounted to 78.0 s. Also, under setting [3], the “1st Day” value worked out at 16.9 ± 6.1 s and the “2nd Day” value is 94.9 ± 11.2 s.
For the compound `C[C@@H]1C[C@@H]2CN(S(=O)(=O)c3ccc(F)cc3)CCN2C1=O` [Compound 4b, Endo 8-methyl-4-(4-fluorobenzensolfonyl)-1,4-diazabicyclo[4.3.0]nonan-9-one], the “Δ (increase in seconds between training and retention latencies)” value under setting [2] came out at 96.5 s. Besides, under setting [3], the “1st Day” value amounted to 21.9 ± 4.7 s and the “2nd Day” value amounted to 118.4 ± 10.2 s.
With `CC(=O)N1CCN(C(=O)c2ccc(F)cc2)CC1` [Compound 5, 4-Acetyl-1-(4-fluorobenzoyl)piperazine], the “Δ (increase in seconds between training and retention latencies)” value reads like this: (1.0 mg kg^-1, + Baclofen 2 mg kg^-1 i.p.) 93.2 s; (1.0 mg kg^-1, + Clonidine 0.125 mg kg^-1 i.p.) 88.1 s; (10 mg kg^-1, + Scopolamine 1.5 mg kg^-1 i.p.) 72.6 s; (20 mg kg^-1, + Mecamilamine 20 mg kg^-1 i.p.) 91.7 s. For the same compound, the “1st Day” value was 11.4 ± 5.2 s under setting [4], 8.0 ± 4.1 s under setting [5], 17.5 ± 6.1 s under setting [6] and 17.0 ± 2.7 s under setting [7]. Moreover, the “2nd Day” value reads like this: under setting [4], 104.6 ± 10.3 s; under setting [5], 96.1 ± 10.7 s; under setting [6], 91.1 ± 9.5 s; under setting [7], 108.7 ± 3.5 s.
Regarding `CC(=O)N1CCN(S(=O)(=O)c2ccc(F)cc2)CC1` [Compound 6, 4-Acetyl-1-(4-fluorobenzensolfonyl)piperazine], the “Δ (increase in seconds between training and retention latencies)” value under setting [8] is 79.2 s; the “Δ (increase in seconds between training and retention latencies)” value (0.1 mg kg^-1, + Baclofen 2 mg kg^-1 i.p.) was determined as 80.4 s; the “Δ (increase in seconds between training and retention latencies)” value (0.1 mg kg^-1, + Clonidine 0.125 mg kg^-1 i.p.) worked out at 77.4 s; the “Δ (increase in seconds between training and retention latencies)” value (1 mg kg^-1, + Mecamilamine 20 mg kg^-1 i.p.) stood at 91.6 s. Besides, the “1st Day” value under setting [9] is 19.8 ± 4.1 s; the “1st Day” value under setting [10] turned out to be 11.7 ± 4.1 s; the “1st Day” value under setting [11] is 14.7 ± 3.7 s; the “1st Day” value under setting [12] was found to be 18.1 ± 3.8 s. Also, the “2nd Day” value is 99.0 ± 18.3 s under setting [9], 92.1 ± 7.9 s under setting [10], 92.4 ± 8.1 s under setting [11] and 109.7 ± 13.6 s under setting [12].
On to `CCC(=O)N1CCN(C(=O)c2ccc(F)cc2)CC1` [Compound 7, 4-Propionyl-1-(4-fluorobenzoyl)piperazine], for which the “Δ (increase in seconds between training and retention latencies)” value by setting is: (30 mg kg^-1, + Baclofen 2 mg kg^-1 i.p.) 86.8 s; (30 mg kg^-1, + Scopolamine 1.5 mg kg^-1 i.p.) 80.5 s. Also, the “1st Day” value is 20.6 ± 4.9 s under setting [13] and 11.9 ± 5.6 s under setting [14]. In addition, the “2nd Day” value worked out at 107.1 ± 11.4 s under setting [13] and 92.4 ± 10.1 s under setting [14].
`CCC(=O)N1CCN(S(=O)(=O)c2ccc(F)cc2)CC1` [Compound 8, 4-Propionyl-1-(4-fluorobenzensolfonyl)piperazine]: the “Δ (increase in seconds between training and retention latencies)” value reads like this: (0.01 mg kg^-1, + Baclofen 2 mg kg^-1 i.p.) 86.8 s; under setting [8], 67.9 s; (10 mg kg^-1, + Mecamilamine 20 mg kg^-1 i.p.) 90.2 s. Further, the “1st Day” value amounted to 16.3 ± 3.3 s under setting [15], 15.9 ± 3.2 s under setting [9] and 16.5 ± 2.7 s under setting [16]. Besides, the “2nd Day” value is, setting by setting: under setting [15], 103.3 ± 13.9 s; under setting [9], 83.8 ± 9.2 s; under setting [16], 106.7 ± 10.2 s.
Consider `NC(=O)CN1CCCC1=O` [Piracetam, piracetam, reference compound], for which the “1st Day” value is, setting by setting: under setting [13], 20.9 ± 4.5 s; (30 mg kg^-1 injected 20 min before training, + Clonidine 0.125 mg kg^-1 i.p. after training) 11.6 ± 3.7 s; (30 mg kg^-1 injected 20 min before training, + Mecamilamine 20 mg kg^-1 i.p. after training) 16.7 ± 4.8 s; under setting [14], 17.6 ± 3.6 s.
